Reference: ChEMBL document CHEMBL5352421, “Identification of novel piperazine-tethered phthalazines as selective CDK1 inhibitors endowed with in vitro anticancer activity toward the pancreatic cancer” (Eur J Med Chem, 2022)
Activity calls are given as the source filed them. The calls are words filed in the database; no cut-off is given here.

What was measured:
[1] = target: Fibroblast growth factor receptor (Homo sapiens, UniProt P22607+P11362+P22455+P21802); assay: Inhibition of FGFR (unknown origin) by FRET assay; format: protein assay
[2] = Antiproliferative activity against human PL45 cells assessed as growth inhibition incubated at 10 uM for 24 hrs by MTT assay relative to control; format: functional; conditions: read-out: GI
HT-29 = assay: Antiproliferative activity against human HT-29 cells assessed as growth inhibition incubated at 10 uM for 24 hrs by MTT assay relative to control; format: functional; conditions: read-out: GI
[3] = target: T1, Tyrosine-protein kinase receptor UFO (Homo sapiens, UniProt P30530); assay: Inhibition of AXL (unknown origin) by FRET assay
T1 sequence (P30530 whole entry): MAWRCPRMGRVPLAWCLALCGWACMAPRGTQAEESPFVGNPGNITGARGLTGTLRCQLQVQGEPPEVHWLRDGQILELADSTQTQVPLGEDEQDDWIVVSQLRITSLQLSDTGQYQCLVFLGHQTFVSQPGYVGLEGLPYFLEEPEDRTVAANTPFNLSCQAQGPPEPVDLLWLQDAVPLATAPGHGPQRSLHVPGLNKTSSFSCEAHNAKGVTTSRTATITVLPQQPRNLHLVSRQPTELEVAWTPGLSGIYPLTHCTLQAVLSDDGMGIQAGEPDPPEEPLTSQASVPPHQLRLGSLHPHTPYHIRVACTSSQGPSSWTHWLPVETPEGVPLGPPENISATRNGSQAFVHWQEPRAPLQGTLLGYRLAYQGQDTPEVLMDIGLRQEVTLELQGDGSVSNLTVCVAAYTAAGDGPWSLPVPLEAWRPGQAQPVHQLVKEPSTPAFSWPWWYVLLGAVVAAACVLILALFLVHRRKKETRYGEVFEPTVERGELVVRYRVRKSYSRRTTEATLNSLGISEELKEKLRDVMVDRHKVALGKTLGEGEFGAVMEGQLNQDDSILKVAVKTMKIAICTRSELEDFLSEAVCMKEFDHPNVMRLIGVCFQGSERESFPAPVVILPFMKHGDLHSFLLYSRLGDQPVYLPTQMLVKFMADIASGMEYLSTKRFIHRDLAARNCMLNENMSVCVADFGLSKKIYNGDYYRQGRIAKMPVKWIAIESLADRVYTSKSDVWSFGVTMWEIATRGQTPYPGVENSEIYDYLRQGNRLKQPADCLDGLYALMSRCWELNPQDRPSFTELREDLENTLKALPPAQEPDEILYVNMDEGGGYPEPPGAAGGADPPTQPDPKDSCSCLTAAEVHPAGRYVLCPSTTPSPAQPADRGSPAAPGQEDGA

[4] = Selectivity index, ratio of IC50 for CDK2 (unknown origin) to CDK1 (unknown origin)
[5] = Antiproliferative activity against human PL45 cells assessed as growth inhibition incubated for 24 hrs by MTT assay; format: functional, cell-based; conditions: PL45, 24 h
MDA-PATC53 [6] = assay: Induction of cell cycle arrest in human MDA-PATC53 cells assessed as accumulation of cells at S phase incubated at IC50 for 24 hrs measured by flow cytometric analysis; format: functional, cell-based
[7] = target: Cyclin-dependent kinase 5 (Homo sapiens, UniProt Q00535); assay: Inhibition of CDK5 (unknown origin) by FRET assay
Chain of Cyclin-dependent kinase 5 (Q00535 whole entry): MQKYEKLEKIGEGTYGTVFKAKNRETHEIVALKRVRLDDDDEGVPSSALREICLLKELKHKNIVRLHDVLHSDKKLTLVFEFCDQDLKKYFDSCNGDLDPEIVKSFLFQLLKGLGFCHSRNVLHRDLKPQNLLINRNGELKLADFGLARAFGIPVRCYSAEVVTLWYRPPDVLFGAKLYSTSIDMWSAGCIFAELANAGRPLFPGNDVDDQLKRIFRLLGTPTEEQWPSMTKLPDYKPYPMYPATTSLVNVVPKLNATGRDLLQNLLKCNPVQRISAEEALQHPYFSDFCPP

[8] = Antiproliferative activity against human MDA-PATC53 cells assessed as growth inhibition incubated for 24 hrs by MTT assay; format: functional, cell-based; conditions: MDA-PATC53, 24 h
[9] = Antiproliferative activity against human MDA-PATC53 cells assessed as growth inhibition incubated at 10 uM for 24 hrs by MTT assay relative to control; format: functional; conditions: read-out: GI
G-361 = assay: Antiproliferative activity against human G-361 cells assessed as growth inhibition incubated at 10 uM for 24 hrs by MTT assay relative to control; format: functional; conditions: read-out: GI
SK-MEL-1 = assay: Antiproliferative activity against human SK-MEL-1 cells assessed as growth inhibition incubated at 10 uM for 24 hrs by MTT assay relative to control; format: functional; conditions: read-out: GI
A-375 = assay: Antiproliferative activity against human A-375 cells assessed as growth inhibition incubated at 10 uM for 24 hrs by MTT assay relative to control; format: functional; conditions: read-out: GI
T84 = assay: Antiproliferative activity against human T84 cells assessed as growth inhibition incubated at 10 uM for 24 hrs by MTT assay relative to control; format: functional; conditions: read-out: GI
[10] = target: Cyclin-dependent kinase 1 (Homo sapiens, UniProt P06493); assay: Inhibition of CDK1 (unknown origin) by FRET assay
Chain of Cyclin-dependent kinase 1 (P06493 whole entry): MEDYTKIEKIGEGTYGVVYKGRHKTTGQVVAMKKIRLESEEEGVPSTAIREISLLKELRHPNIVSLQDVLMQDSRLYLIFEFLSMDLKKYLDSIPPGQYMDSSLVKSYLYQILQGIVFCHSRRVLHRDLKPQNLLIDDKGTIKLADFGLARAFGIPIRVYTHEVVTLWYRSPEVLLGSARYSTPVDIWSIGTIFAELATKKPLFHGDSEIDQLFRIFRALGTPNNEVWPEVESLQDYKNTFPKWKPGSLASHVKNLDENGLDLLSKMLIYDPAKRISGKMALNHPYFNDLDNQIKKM

BT-549 = assay: Antiproliferative activity against human BT-549 cells assessed as growth inhibition incubated at 10 uM for 24 hrs by MTT assay relative to control; format: functional; conditions: read-out: GI
[11] = Induction of cell cycle arrest in human MDA-PATC53 cells assessed as accumulation of cells at G2/M phase incubated at IC50 for 24 hrs measured by flow cytometric analysis (reference value: 9%); format: functional
MDA-PATC53 [12] = assay: Downregulation of CDK1 expression in human MDA-PATC53 cells incubated at IC50 for 24 hrs by Western blotting analysis; format: functional, cell-based
[13] = Selectivity index, ratio of IC50 for CDK5 (unknown origin) to CDK1 (unknown origin)
KG-1 = assay: Antiproliferative activity against human KG-1 cells assessed as growth inhibition incubated at 10 uM for 24 hrs by MTT assay relative to control; format: functional; conditions: read-out: GI
[14] = target: Protein-tyrosine kinase 2-beta (Homo sapiens, UniProt Q14289); assay: Inhibition of PTK2B (unknown origin) by FRET assay
Chain of Protein-tyrosine kinase 2-beta (Q14289 whole entry): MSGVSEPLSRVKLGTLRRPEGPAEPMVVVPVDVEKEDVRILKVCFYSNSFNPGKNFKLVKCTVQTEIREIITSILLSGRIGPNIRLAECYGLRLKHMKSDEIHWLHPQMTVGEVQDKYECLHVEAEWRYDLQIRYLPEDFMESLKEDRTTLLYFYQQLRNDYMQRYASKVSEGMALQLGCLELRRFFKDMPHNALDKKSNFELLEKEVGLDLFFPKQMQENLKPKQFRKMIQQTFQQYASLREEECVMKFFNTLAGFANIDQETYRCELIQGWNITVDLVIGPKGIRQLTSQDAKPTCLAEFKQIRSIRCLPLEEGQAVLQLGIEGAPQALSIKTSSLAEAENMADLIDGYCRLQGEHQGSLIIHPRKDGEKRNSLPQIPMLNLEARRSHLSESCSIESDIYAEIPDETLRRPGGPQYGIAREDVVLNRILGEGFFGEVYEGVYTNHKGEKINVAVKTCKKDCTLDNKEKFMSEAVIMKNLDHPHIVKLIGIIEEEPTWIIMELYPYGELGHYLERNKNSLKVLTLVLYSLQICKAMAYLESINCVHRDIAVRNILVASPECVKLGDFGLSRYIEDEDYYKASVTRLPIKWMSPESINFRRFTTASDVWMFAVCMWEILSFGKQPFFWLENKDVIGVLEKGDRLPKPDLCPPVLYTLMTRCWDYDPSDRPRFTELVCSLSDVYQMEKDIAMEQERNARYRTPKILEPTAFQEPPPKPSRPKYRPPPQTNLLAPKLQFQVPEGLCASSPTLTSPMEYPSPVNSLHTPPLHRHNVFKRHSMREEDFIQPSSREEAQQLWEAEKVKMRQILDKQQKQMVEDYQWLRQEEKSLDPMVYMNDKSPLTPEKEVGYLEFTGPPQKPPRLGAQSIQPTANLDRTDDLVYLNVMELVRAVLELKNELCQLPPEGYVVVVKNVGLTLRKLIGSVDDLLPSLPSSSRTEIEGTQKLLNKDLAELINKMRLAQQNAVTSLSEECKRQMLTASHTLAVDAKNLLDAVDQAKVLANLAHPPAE

MOLT-4 = assay: Antiproliferative activity against human MOLT-4 cells assessed as growth inhibition incubated at 10 uM for 24 hrs by MTT assay relative to control; format: functional; conditions: read-out: GI
[15] = target: Insulin-like growth factor 1 receptor (Homo sapiens, UniProt P08069); assay: Inhibition of IGF1R (unknown origin) by FRET assay
Chain of Insulin-like growth factor 1 receptor (P08069 31-736 limits assumed): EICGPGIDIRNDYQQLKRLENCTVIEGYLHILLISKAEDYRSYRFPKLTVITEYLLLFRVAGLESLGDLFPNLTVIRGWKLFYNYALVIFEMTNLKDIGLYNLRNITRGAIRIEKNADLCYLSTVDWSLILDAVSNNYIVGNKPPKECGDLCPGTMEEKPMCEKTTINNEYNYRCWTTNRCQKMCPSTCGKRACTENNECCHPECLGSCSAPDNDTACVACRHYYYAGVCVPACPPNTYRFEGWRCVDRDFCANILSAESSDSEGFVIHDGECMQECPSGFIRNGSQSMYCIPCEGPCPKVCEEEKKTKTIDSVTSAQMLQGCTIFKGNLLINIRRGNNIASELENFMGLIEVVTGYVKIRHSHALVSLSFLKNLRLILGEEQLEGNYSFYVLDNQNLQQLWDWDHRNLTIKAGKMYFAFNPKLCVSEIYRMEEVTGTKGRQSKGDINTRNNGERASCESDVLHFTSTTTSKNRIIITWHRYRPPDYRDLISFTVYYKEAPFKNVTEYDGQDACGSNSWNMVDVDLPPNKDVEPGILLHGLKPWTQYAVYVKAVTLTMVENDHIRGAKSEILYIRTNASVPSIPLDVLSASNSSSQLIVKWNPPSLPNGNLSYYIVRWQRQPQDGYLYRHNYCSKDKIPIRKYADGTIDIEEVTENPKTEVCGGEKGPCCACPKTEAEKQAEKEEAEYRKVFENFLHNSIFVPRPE
Chain of Insulin-like growth factor 1 receptor (P08069 741-1367 limits assumed): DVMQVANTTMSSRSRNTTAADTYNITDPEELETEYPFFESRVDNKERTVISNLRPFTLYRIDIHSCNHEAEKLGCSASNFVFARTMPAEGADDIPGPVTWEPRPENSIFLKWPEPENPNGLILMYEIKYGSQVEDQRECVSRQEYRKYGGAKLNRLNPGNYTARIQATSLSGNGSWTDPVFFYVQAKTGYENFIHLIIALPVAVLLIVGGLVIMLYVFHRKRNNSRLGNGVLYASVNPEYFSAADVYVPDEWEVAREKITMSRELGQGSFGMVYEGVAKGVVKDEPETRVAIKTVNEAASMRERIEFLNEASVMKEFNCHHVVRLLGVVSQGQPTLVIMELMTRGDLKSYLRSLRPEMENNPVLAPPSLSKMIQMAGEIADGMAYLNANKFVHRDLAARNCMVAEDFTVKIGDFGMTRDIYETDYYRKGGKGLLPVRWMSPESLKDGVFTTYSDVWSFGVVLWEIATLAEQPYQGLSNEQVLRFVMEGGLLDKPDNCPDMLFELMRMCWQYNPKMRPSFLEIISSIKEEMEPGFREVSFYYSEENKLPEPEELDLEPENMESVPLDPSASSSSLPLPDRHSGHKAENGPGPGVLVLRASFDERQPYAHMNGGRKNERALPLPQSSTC

[16] = target: Tyrosine-protein kinase JAK1 (Homo sapiens, UniProt P23458); assay: Inhibition of JAK1 (unknown origin) by FRET assay
Chain of Tyrosine-protein kinase JAK1 (P23458 whole entry): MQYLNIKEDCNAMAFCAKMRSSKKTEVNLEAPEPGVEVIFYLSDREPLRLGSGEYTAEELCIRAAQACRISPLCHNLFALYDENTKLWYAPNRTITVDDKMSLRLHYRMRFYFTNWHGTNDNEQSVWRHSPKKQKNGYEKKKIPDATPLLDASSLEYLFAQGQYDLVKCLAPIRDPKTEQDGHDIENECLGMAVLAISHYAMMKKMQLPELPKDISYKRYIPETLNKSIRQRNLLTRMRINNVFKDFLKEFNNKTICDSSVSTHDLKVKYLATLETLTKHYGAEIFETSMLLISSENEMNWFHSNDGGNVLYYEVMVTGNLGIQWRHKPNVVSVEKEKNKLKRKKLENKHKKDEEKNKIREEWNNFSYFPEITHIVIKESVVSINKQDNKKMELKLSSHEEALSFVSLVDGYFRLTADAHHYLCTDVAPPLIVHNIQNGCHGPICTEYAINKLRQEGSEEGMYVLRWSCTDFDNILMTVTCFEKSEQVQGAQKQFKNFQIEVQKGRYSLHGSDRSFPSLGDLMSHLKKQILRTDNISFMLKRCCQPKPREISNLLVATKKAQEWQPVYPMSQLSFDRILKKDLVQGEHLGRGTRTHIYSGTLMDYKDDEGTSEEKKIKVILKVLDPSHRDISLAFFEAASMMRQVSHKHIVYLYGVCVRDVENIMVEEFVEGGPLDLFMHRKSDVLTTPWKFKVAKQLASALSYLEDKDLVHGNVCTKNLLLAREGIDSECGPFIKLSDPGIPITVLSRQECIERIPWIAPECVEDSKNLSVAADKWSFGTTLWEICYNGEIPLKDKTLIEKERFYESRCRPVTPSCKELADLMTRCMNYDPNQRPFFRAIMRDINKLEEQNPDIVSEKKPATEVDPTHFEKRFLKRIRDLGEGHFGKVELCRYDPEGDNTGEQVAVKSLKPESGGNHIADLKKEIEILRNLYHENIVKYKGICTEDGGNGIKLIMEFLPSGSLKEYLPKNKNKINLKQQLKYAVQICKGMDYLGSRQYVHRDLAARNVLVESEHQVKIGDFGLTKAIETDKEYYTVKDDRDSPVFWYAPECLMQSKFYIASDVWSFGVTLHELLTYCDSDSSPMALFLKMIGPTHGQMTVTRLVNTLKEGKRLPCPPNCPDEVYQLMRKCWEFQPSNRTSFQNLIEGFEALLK

[17] = target: Serine/threonine-protein kinase B-raf (Homo sapiens, UniProt P15056); assay: Inhibition of BRAF (unknown origin) by FRET assay
Chain of Serine/threonine-protein kinase B-raf (P15056 whole entry): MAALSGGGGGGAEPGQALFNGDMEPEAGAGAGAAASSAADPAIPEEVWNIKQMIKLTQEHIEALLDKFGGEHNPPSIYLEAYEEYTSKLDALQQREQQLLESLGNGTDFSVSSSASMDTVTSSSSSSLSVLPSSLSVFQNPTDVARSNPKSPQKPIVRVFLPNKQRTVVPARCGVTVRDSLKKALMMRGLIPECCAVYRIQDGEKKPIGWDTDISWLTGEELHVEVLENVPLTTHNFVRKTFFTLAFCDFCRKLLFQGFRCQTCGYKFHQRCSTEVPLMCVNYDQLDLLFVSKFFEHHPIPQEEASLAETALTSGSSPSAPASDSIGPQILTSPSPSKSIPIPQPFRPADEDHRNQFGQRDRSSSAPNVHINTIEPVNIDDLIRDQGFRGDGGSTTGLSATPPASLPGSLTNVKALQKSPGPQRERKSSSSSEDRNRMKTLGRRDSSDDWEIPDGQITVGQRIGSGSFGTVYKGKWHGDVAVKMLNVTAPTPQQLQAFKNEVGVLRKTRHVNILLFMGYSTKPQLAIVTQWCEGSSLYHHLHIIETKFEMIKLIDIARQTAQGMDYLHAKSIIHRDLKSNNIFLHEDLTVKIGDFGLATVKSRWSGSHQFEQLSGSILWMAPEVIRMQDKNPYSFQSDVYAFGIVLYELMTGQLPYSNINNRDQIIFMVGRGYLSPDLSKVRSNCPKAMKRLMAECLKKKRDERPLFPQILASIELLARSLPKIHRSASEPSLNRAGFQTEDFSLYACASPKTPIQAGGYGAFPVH

MCF7 = assay: Antiproliferative activity against human MCF7 cells assessed as growth inhibition incubated at 10 uM for 24 hrs by MTT assay relative to control; format: functional; conditions: read-out: GI
[18] = target: Cyclin-dependent kinase 2 (Homo sapiens, UniProt P24941); assay: Inhibition of CDK2 (unknown origin) by FRET assay

Row | IC50 [1] [nM] | IC50 [3] [nM] | Ratio IC50 [4] | IC50 [7] [nM] | IC50 [10] [nM] | Ratio IC50 [13] | IC50 [14] [nM] | IC50 [15] [nM] | SMILES | inhibition of growth at 10 µM [2] [%] | inhibition of growth at 10 µM (HT-29) [%] | IC50 [5] [nM] | IC50 [8] [nM] | inhibition of growth at 10 µM [9] [%] | inhibition of growth at 10 µM (G-361) [%] | inhibition of growth at 10 µM (SK-MEL-1) [%] | inhibition of growth at 10 µM (A-375) [%] | inhibition of growth at 10 µM (T84) [%] | inhibition of growth at 10 µM (BT-549) [%] | inhibition of growth at 10 µM (KG-1) [%] | inhibition of growth at 10 µM (MOLT-4) [%] | also measured
1 | 7620 | 2490 | 14 | 135 | 44.5 | 3.04 | 8960 | 4290 | S=C(Nc1cccc(Cl)c1)N1CCN(c2nnc(Cc3ccccc3)c3ccccc23)CC1 | 95.3 | 84.3 | 1140 | 880 | 96.8 | 88 | 85.4 | 76.1 | 81.7 | 79.3 | 69.1 | 85 | Activity (MDA-PATC53 [6]): Active; Activity [11]: 16%; Activity (MDA-PATC53 [12]): Active; IC50 [16]: 8540 nM; IC50 [17]: 1160 nM; inhibition of growth at 10 µM (MCF7): 78.2%; IC50 [18]: 622 nM
2 | 4626 | 5650 | 8.29 | 369 | 36.8 | 10 | 3630 | 5510 | COc1ccc(Cc2nnc(N3CCN(C(=O)Nc4ccc(Cl)c(C(F)(F)F)c4)CC3)c3ccccc23)cc1 | 97.6 | 87.4 | 740 | 510 | 99 | 61.4 | 74 | 89.2 | 89.6 | 85.5 | 72.3 | 84.1 | Activity (MDA-PATC53 [6]): Active; Activity [11]: 21%; Activity (MDA-PATC53 [12]): Active; IC50 [16]: 5260 nM; IC50 [17]: 2830 nM; inhibition of growth at 10 µM (MCF7): 71.4%; IC50 [18]: 305 nM
3 | 2538 | 5650 | 4.47 | 354 | 42.2 | 8.39 | 8950 | 8550 | COc1ccc(Cc2nnc(N3CCN(C(=S)Nc4cccc(Cl)c4)CC3)c3ccccc23)cc1 | 93.5 | 85 | 1000 | 730 | 97.1 | 92.3 | 84.2 | 86.4 | 88.2 | 78 | 74.2 | 89.3 | Activity (MDA-PATC53 [6]): Active; Activity [11]: 14%; Activity (MDA-PATC53 [12]): Active; IC50 [16]: 2420 nM; IC50 [17]: 8140 nM; inhibition of growth at 10 µM (MCF7): 62%; IC50 [18]: 189 nM
4 | 6332 | 5490 | 5 | 391 | 91 | 4.3 | 4330 | 1530 | COc1ccc(Cc2nnc(N3CCN(C(=O)c4ccccc4)CC3)c3ccccc23)cc1 | 44.6 | 5.09 | 12900 | 4070 | 70.4 | 8.66 | 2.02 | 10.3 | 18.3 | 19 | 12.1 | 9.47 | IC50 [16]: 5600 nM; IC50 [17]: 3260 nM; inhibition of growth at 10 µM (MCF7): 11.4%; IC50 [18]: 455 nM
